Laboratory results reported in patent US20230365561A1, “BETA-LACTAMASE INHIBITORS AND THEIR PREPARATION” (NINGXIA ACADEMY OF AGRICUL TURE AND FORESTRY SCIENCES, priority 2020, published 2023).
Structures can show the parent of a compound that is named as a salt. Where two headings read alike, the source gives them in different places.

Experiments:
Assay type in all cases: cell-based
[1] = test system: K. pneumoniae clinical isolate (strain 3); test: MIC by broth microdilution (alone and in combination with meropenam), strain 3; settings: Klebsiella pneumoniae, compound alone
Procedure: (§1) Compounds of the present invention alone, meropenam (MER) alone, and as a combination with test antibiotic (meropenam) were tested for antimicrobial activity by determing minimum inhibitory concentration (MIC, mg/L) using the broth microdilution method according to the guidelines of the Clinical Laboratories and Stansards Insitute (“Methods for Dilution Antimicrobial Suscetibility Tests for Bacterial that Grow Aerobiclly”, Approved standard, […]., Clinical and Laboratories Stanards Institute (CLSI) Document M7-A8, Wayne, Pa., USA, 2009). Meropenam as a test antibiotic compound was dissolved in DMSO. Meropenam was then diluted in microbial growth medium (Mueller-Hinton Broth II, cation adjusted) resulting in a final concention range of 0.125-64 mg/L in serial two-fold dilution. In all cases the filnal DMSO concentraion was less than 0.5%. Bacteria were added to 96-well microtitre plates containing the serial two-fold dilutions of the compoumds; the final cell density was appoximately 5x10^5 colony forming units/mL (CFU/mL). Plates were incubated at 37° C. for 18-24 hours and read visually. The MIC, i.e. the lowest concentration of the test compound that inhibited visible growth of the bacteria, was recorded. The same assay conditions were used when the compounds of present invention alone, and as a combination with test meropenam antibiotic compound was tested for minmum inhibitory concentration (MIC, mg/L). Whileest meropenam was serially diluted as descrribed above, a constant concentration of the present invention of 4 µg/mL was used.
(§2) Bacterial strains that were used to evaluate the antimicrobial activity using the MIC determination included but were not limited to E. coli clinical isolate (strain 1), E. coli 8739 (strain 2), K. pneumoniae clinical isolate (strain 3), K. pneumoniae 700603 (strain 4), E. cloacae clinical isolate (strain 5), E. cloacae 700323 (strain 6), A. baumannii clinical isolate (strain 7), A. baumannii 19606 (strain 8), P. aeruginosa clinical isolate (strain 9), P. aeruginosa 9027 (strain 10).

[2] = test system: P. aeruginosa clinical isolate (strain 9); test: MIC by broth microdilution (alone and in combination with meropenam), strain 9; settings: Pseudomonas aeruginosa, compound alone
Procedure: as §1, §2

[3] = test system: E. cloacae clinical isolate (strain 5); test: MIC by broth microdilution (alone and in combination with meropenam), strain 5; settings: Enterobacter cloacae, compound alone
Procedure: as §1, §2

[4] = test system: E. coli clinical isolate (strain 1); test: MIC by broth microdilution (alone and in combination with meropenam), strain 1; settings: Escherichia coli, compound alone
Procedure: as §1, §2

E. coli 8739 (strain 2) = test: MIC by broth microdilution (alone and in combination with meropenam), strain 2; settings: Escherichia coli, compound alone
Procedure: as §1, §2

[5] = test system: P. aeruginosa 9027 (strain 10); test: MIC by broth microdilution (alone and in combination with meropenam), strain 10; settings: Pseudomonas aeruginosa, compound alone
Procedure: as §1, §2

[6] = test system: E. cloacae 700323 (strain 6); test: MIC by broth microdilution (alone and in combination with meropenam), strain 6; settings: Enterobacter cloacae, compound alone
Procedure: as §1, §2

[7] = test system: K. pneumoniae 700603 (strain 4); test: MIC by broth microdilution (alone and in combination with meropenam), strain 4; settings: Klebsiella pneumoniae, compound alone
Procedure: as §1, §2

[8] = test system: A. baumannii clinical isolate (strain 7); test: MIC by broth microdilution (alone and in combination with meropenam), strain 7; settings: Acinetobacter baumannii, compound alone
Procedure: as §1, §2

[9] = test system: A. baumannii 19606 (strain 8); test: MIC by broth microdilution (alone and in combination with meropenam), strain 8; settings: Acinetobacter baumannii, compound alone
Procedure: as §1, §2

[10] = read-out: MIC, antibacterial activity of example alone

Measured: MIC

N=C(NC(=O)c1ccncc1)[C@@H]1CC[C@@H]2CN1C(=O)N2OS(=O)(=O)O [Ex.7, (2S,5R)-2-(N-isonicotinoylcarbamimidoyl)-7-oxo-1,6-diazabicyclo[3.2.1]octan-6-yl Hydrogen Sulfate]
> 64 µg/mL: [1]; [10] | [2]; [10] | [3]; [10] | [4]; [10] | E. coli 8739 (strain 2); [10] | [5]; [10] | [6]; [10] | [7]; [10] | [8]; [10] | [9]; [10]

N=C(NC(=O)c1ccc(C(F)(F)F)nc1)[C@@H]1CC[C@@H]2CN1C(=O)N2OS(=O)(=O)[O-].[Na+] [Ex.6, Sodium (2S,5R)-7-oxo-2-(N-(6-(trifluoromethyl)nicotinoyl)carbamimidoyl)-1,6-diazabicyclo[3.2.1]octan-6-yl Sulfate]
> 64 µg/mL: [1]; [10] | [2]; [10] | [3]; [10] | [4]; [10] | E. coli 8739 (strain 2); [10] | [5]; [10] | [6]; [10] | [7]; [10] | [8]; [10] | [9]; [10]

N=C(NC(=O)c1nc(-c2ccccc2)cs1)[C@@H]1CC[C@@H]2CN1C(=O)N2OS(=O)(=O)[O-].[Na+] [Ex.44, Sodium (2S,5R)-7-oxo-2-(N-(4-phenylthiazole-2-carbonyl)carbamimidoyl)-1,6-diazabicyclo[3.2.1]octan-6-yl Sulfate]
> 64 µg/mL: [1]; [10] | [2]; [10] | [3]; [10] | [4]; [10] | E. coli 8739 (strain 2); [10] | [5]; [10] | [6]; [10] | [7]; [10] | [8]; [10] | [9]; [10]

N=C(NC(=O)c1cnco1)[C@@H]1CC[C@@H]2CN1C(=O)N2OS(=O)(=O)[O-].[Na+] [Ex.21, Sodium (2S,5R)-2-(N-(oxazole-5-carbonyl)carbamimidoyl)-7-oxo-1,6-diazabicyclo[3.2.1]octan-6-yl Sulfate]
> 64 µg/mL: [1]; [10] | [2]; [10] | [3]; [10] | [4]; [10] | E. coli 8739 (strain 2); [10] | [5]; [10] | [6]; [10] | [7]; [10] | [8]; [10] | [9]; [10]

CCC(=O)NC(=N)[C@@H]1CC[C@@H]2CN1C(=O)N2OS(=O)(=O)[O-].[Na+] [Ex.3, Sodium (2S,5R)-7-oxo-2-(N-propionylcarbamimidoyl)-1,6-diazabicyclo[3.2.1]octan-6-yl Sulfate]
> 64 µg/mL: [1]; [10] | [2]; [10] | [3]; [10] | [4]; [10] | E. coli 8739 (strain 2); [10] | [5]; [10] | [6]; [10] | [7]; [10] | [8]; [10] | [9]; [10]

CN1CC[C@@H](C(=O)NC(=N)[C@@H]2CC[C@@H]3CN2C(=O)N3OS(=O)(=O)O)C1 [Ex.33, Sodium (2S,5R)-2-(N-((R)-1-methylpyrrolidine-3-carbonyl)carbamimidoyl)-7-oxo-1,6-diazabicyclo[3.2.1]octan-6-yl Sulfate]
> 64 µg/mL: [1]; [10] | [2]; [10] | [3]; [10] | [4]; [10] | E. coli 8739 (strain 2); [10] | [5]; [10] | [6]; [10] | [7]; [10] | [8]; [10] | [9]; [10]

N=C(NC(=O)c1ccc(C(F)(F)F)cc1)[C@@H]1CC[C@@H]2CN1C(=O)N2OS(=O)(=O)[O-].[Na+] [Ex.49, Sodium (2S,5R)-7-oxo-2-(N-(4-(trifluoromethyl)benzoyl)carbamimidoyl)-1,6-diazabicyclo[3.2.1]octan-6-yl Sulfate]
> 64 µg/mL: [1]; read-out: MIC | [2]; read-out: MIC | [3]; read-out: MIC | [4]; read-out: MIC | E. coli 8739 (strain 2); read-out: MIC | [5]; read-out: MIC | [6]; read-out: MIC | [7]; read-out: MIC | [8]; read-out: MIC | [9]; read-out: MIC

N=C(N)NOCCCC(=O)NC(=N)[C@@H]1CC[C@@H]2CN1C(=O)N2OS(=O)(=O)O [Ex.47, (2S,5R)-2-(N-(4-(guanidinooxy)butanoyl)carbamimidoyl)-7-oxo-1,6-diazabicyclo[3.2.1]octan-6-yl Hydrogen Sulfate]
> 64 µg/mL: [1]; read-out: MIC | [2]; read-out: MIC | [3]; read-out: MIC | [4]; read-out: MIC | E. coli 8739 (strain 2); read-out: MIC | [5]; read-out: MIC | [6]; read-out: MIC | [7]; read-out: MIC | [8]; read-out: MIC | [9]; read-out: MIC
